Experimental data as given in PubChem BioAssay AID326 (DTP/NCI, 2004).
“And” between values parts separate entries of the source, which are not always exact repeats. Equal values may be shown once. Toxic doses and inconclusive results are not listed.

Tested on: CD2F1 mice, P388/DHAQ leukemia ip, median survival T/C
Experiment: NCI In Vivo Anticancer Drug Screen. Data for tumor model P388 Leukemia resistant to Dihydroxy Anthracenedione; NSC 299195 (intraperitoneal) in CD2F1 (CDF1) mice
Settings: endpoint: median survival time, higher = longer survival
Description: The antitumor activity of compounds was measured in mice bearing transplantable tumors. Survival or tumor size were measured and the results are expressed as the measurement made in the treated group (T) divided by the measurement made in the vehicle treated control group (C). The tumor model used in this assay is P388 Leukemia resistant to Dihydroxy Anthracenedione; NSC 299195 (intraperitoneal) in CD2F1 (CDF1) mice

CN(Cc1cnc2nc(N)nc(N)c2n1)c1ccc(C(=O)N[C@@H](CCC(=O)O)C(=O)O)cc1
T/C (dose: 8.64 mg/kg/injection, schedule: Q04DX003 (ip), vehicle: sodium bicarbonate): 161 % of control and 192 % of control | T/C (dose: 14.4 mg/kg/injection, schedule: Q04DX003 (ip), vehicle: sodium bicarbonate): 168 % of control and 195 % of control | T/C (dose: 24.0 mg/kg/injection, schedule: Q04DX003 (ip), vehicle: sodium bicarbonate): 108 % of control and 214 % of control | T/C (dose: 40.0 mg/kg/injection, schedule: Q04DX003 (ip), vehicle: sodium bicarbonate): 92 % of control

CO[C@@]12[C@H](COC(N)=O)C3=C(C(=O)C(C)=C(N)C3=O)N1C[C@@H]1N[C@@H]12
T/C (dose: 1.08 mg/kg/injection, schedule: Q04DX002 (ip), vehicle: saline): 95 % of control | T/C (dose: 1.62 mg/kg/injection, schedule: Q04DX003 (ip), vehicle: saline): 166 % of control | T/C (dose: 1.8 mg/kg/injection, schedule: Q04DX002 (ip), vehicle: saline): 108 % of control | T/C (dose: 2.7 mg/kg/injection, schedule: Q04DX003 (ip), vehicle: saline): 172 % of control | T/C (dose: 3.0 mg/kg/injection, schedule: Q04DX002 (ip), vehicle: saline): 103 % of control | T/C (dose: 4.5 mg/kg/injection, schedule: Q04DX003 (ip), vehicle: saline): 168 % of control | T/C (dose: 5.0 mg/kg/injection, schedule: Q04DX002 (ip), vehicle: saline): 117 % of control | T/C (dose: 7.5 mg/kg/injection, schedule: Q04DX003 (ip), vehicle: saline): 108 % of control

COc1cc(NS(C)(=O)=O)ccc1Nc1c2ccccc2nc2ccccc12
T/C (dose: 2.59 mg/kg/injection, schedule: Q04DX002 (ip), vehicle: other): 108 % of control and 114 % of control (2×) | T/C (dose: 2.59 mg/kg/injection, schedule: Q04DX003 (ip), vehicle: saline): 107 % of control | T/C (dose: 4.32 mg/kg/injection, schedule: Q04DX003 (ip), vehicle: saline): 117 % of control
